Values of other authors, collected in patent US20260335284A1, “STABLE MITOMYCIN CONCENTRATES” (STEPS BIOSCIENCES, INC., priority 2022, published 2026).

Conditions: EP 0415430A1

Q: Which “Stability in water and in PEG” value (in water and also in PEG) does the source give for `CO[C@@]12[C@H](COC(N)=O)C3=C(C(=O)C(C)=C(N)C3=O)N1C[C@@H]1N[C@@H]12` [MMC, Mitomycin C] here?
A: very unstable

Q: What about the “Stability in PG with finite percentage of water (5%)” value (solutions at 5 mg/mL) of the same compound?
A: most stable
